Reference: patent publication US20250344695A1, “METHOD FOR PEST CONTROL” (priority 2024, published 2025)
In brackets after ≈: the same amount, converted by molar mass.

Experiments:
[1] = air=1; cited from earlier work
[2] = cited from earlier work
[3] = cited from earlier work; remark: listed apart in the source
[4] = tested on: confused flour beetle, Tribolium confusum; experiment: chlorobenzene fumigation in 1.9-liter jars, confused flour beetle adults; format: in vivo; conditions: 21° C.
Experimental: (§1) Example 1: Chlorobenzene fumigations were conducted for control of six insect species and one mite species and they were: rice weevil, Sitophilus oryzae (Coleoptera: Curculionidae), confused flour beetle, Tribolium confusum (Coleoptera: Tenebrionidae), navel orangeworm, Amyelois transitella (Lepidoptera: Pyralidae), spotted wing drosophila, Drosophila suzukii (Diptera: Drosophilidae), western flower thrips, Frankliniella occidentalis (Thysanoptera: Thripidae), eastern subterranean termite, Reticulitermes flavipes (Blattodea: Rhinotermitidae), and ham mite, Tyrophagus putrescentiae (Schrank) (Acarina: Acaridae) (FIG. 2). Most fumigations were conducted in 1.9-liter glass jars. Confused flour beetle and rice weevil were fumigated in 1.9-liter jars and in 60-liter chambers with corn. Navel orangeworm was fumigated in 21.8 L chambers modified from pressure cookers. […]
(§2) A filter paper disc was clipped on the port underneath the lid with a metal clip. […] Insect mortality was then scored. Chlorobenzene doses were recorded as microliter liquid per liter of chamber space (ul/l).
(§3) Confused flour beetle and rice weevil adults were collected separately in plastic vials from their prospective colonies. […] Chlorobenzene vapor concentrations were measured during fumigation using detector tubes. After fumigation, insects were kept at room temperature overnight before being scored for mortality. […]

confused flour beetle = experiment: large-scale chlorobenzene fumigation of corn in a 60-liter chamber, confused flour beetle all life stages; format: in vivo, Tribolium confusum; conditions: 24 h at 21° C.
Experimental: (§4) Procedure-Large-scale chlorobenzene fumigations of corn with confused flour beetle and rice weevil were conducted in a 60 L fumigation chamber. The chamber was modified from a 60 L diary pot with an added platform at bottom and a vertically positioned air blower to circulate air in the chamber (FIG. 3). A vial with filter paper was positioned near a port on the wall. A total of 20 kg corn was placed in 9 mesh bags. Confused flour beetle adults and other life stage in flour diet and rice weevil adults and other life stages in pearled barley were sealed in small plastic cages with mesh screens on top and bottom for air movement. One cage with confused four beetle culture medium with all life stages and one cage with all life stages of rice weevil were placed in each mesh bag. The bags were packed in the chamber in two layers. The last two containers with confused flour beetle and rice weevil respectively were placed on top of the corn bags. Ten cages for each species were set up to be fumigated. Five cages for each species were used as controls. The chamber was then placed in a fume hood. After the chamber was sealed, 30 ml chlorobenzene was injected into the vial in the chamber and the air blower was turned on to start a fumigation treatment. The fumigation treatment lasted 24 h at 21° C.
(§5) In each fumigation, chlorobenzene vapor concentrations were measured at 2, 4, 6, 9, 21,and 24 h of each treatment using chlorobenzene detector tubes. For each measurement, a 40 ml air sample from the headspace of the chamber was taken and diluted 50-fold in a 1.9 L glass jar. Then, chlorobenzene detectors with a range of 2-500 ppm were used to measure chlorobenzene concentrations. At the end of each fumigation, the lid of the fumigation chamber was removed, and the air blower was kept running for at least 2 h to ventilate the chamber. The corn bags were then removed and containers with insects were recovered. Insects together with diet from each cage were placed in a plastic vial. All adults were removed from each vial and mortality of adults was scored next day. All vials with diet containing other life stages were incubated at 25° C. in an environmental chamber to allow surviving immature individuals to develop and emerge as adults. The vials were checked weekly to count and remove emerged adults to assess mortality of immature stages until there was no adult emergence for two consecutive weeks. A total of three large-scale fumigation tests have been conducted.

[5] = tested on: eastern subterranean termite, Reticulitermes flavipes; experiment: chlorobenzene fumigation in 1.9-liter jars, eastern subterranean termite workers; format: in vivo; conditions: 50 μl/l dose, 3 h at 21° C.
Experimental: (§6) Example 1: Chlorobenzene fumigations were conducted for control of six insect species and one mite species and they were: rice weevil, Sitophilus oryzae (Coleoptera: Curculionidae), confused flour beetle, Tribolium confusum (Coleoptera: Tenebrionidae), navel orangeworm, Amyelois transitella (Lepidoptera: Pyralidae), spotted wing drosophila, Drosophila suzukii (Diptera: Drosophilidae), western flower thrips, Frankliniella occidentalis (Thysanoptera: Thripidae), eastern subterranean termite, Reticulitermes flavipes (Blattodea: Rhinotermitidae), and ham mite, Tyrophagus putrescentiae (Schrank) (Acarina: Acaridae) (FIG. 2). Most fumigations were conducted in 1.9-liter glass jars. Confused flour beetle and rice weevil were fumigated in 1.9-liter jars and in 60-liter chambers with corn. Navel orangeworm was fumigated in 21.8 L chambers modified from pressure cookers.
Rice weevil and confused flour beetle were reared on pearled barley and wheat flour diet in jars, respectively. […]
as §2
Workers of eastern subterranean termites were obtained from a commercial source. […] After fumigation, vials with insects were held in an environmental chamber overnight before mortality was scored. […]

[6] = tested on: navel orangeworm, Amyelois transitella; experiment: 24 h chlorobenzene fumigation in 21.8-liter chambers, navel orangeworm eggs, larvae and pupae; format: in vivo; conditions: 24 h at 21° C.; for Larvae Mortality (%) Mean ± SE: 2nd, 4th, 6th instar pooled
Experimental: Procedure-Navel orangeworm eggs, larvae, and pupae were fumigated with chlorobenzene for 24 h at 21° C. in 21.8L chambers modified from pressure cookers to determine effects on mortality. Each chamber has a fan to circulate air. A small container with a piece of filter affixed in it was positioned next to the fan in each chamber as a reservoir for chlorobenzene (FIG. 4). Egg sheet with eggs oviposited during the last 3 days was harvested and cut into small pieces each with about 50 eggs. One piece of egg sheet was placed in a small 49 ml plastic vial and sealed with a screened lid. Larvae of three different ages (2nd, 4th, and 6th) were set up separately in 157 ml plastic vials each containing 3 g diet (10/vial). The vial was sealed with a screened lid. Three chlorobenzene does 50, 100, and 200 μl/l were tested in three chambers. They were achieved by adding 1, 2, and 4 ml of chlorobenzene in reservoirs in three fumigation chambers, respectively. Except for eggs that were only fumigated with chlorobenzene at 100 and 200 μl/l together with larvae and pupae, in each test, 5 vials of eggs, 9 vials of larvae (3 vials for each stage), and 3 vials of pupae were fumigated in one chamber. Controls were also set up for all life stages tested.
After chlorobenzene was added, the chamber was sealed and the fan was turned on to circulate air continuously for the 24 h duration of fumigation. Chlorobenzene detector tubes were used to measure chlorobenzene vapor concentrations 5-6 times between 2 h after start and before the end of fumigations. By the end of fumigation, all chlorobenzene liquid had vaporized in all three treatments. After fumigation, vials with larvae were held at 21° C. overnight before larval mortality was scored. For navel orangeworm eggs, diet was added in each vial and vials were incubated at 25° C. to allow all viable eggs to hatch. After over 10 days, neonate larvae were counted to estimate egg mortality. Pupae were also incubated at 25° C. in an environmental chamber to allow all viable pupae to develop into moths, and moths were then counted to determine pupal mortality. A total of three tests were conducted.

[7] = at 20° C.; cited from earlier work
[8] = tested on: rice weevil, Sitophilus oryzae; experiment: chlorobenzene fumigation in 1.9-liter jars, rice weevil adults; format: in vivo; conditions: 21° C.
Experimental: as §1, §2, §3

[9] = tested on: western flower thrips, Frankliniella occidentalis; experiment: chlorobenzene fumigation in 1.9-liter jars, western flower thrips larvae and adults; format: in vivo; conditions: 24 h at 2° C.
Experimental: as §1, with “corn.” for “corn. Navel orangeworm was fumigated in 21.8 L chambers modified from pressure cookers.”
as §2
Larvae and adults of western flower thrips were collected from infested lettuce plants in small vials each containing a piece of lettuce leaf (ca 20/vial) and stored in a refrigerator to cool them down. […] Vapor concentrations of chlorobenzene were measured during fumigation. After fumigation, thrips were kept at 2° C. overnight before mortality was scored. […]

[10] = tested on: ham mite, Tyrophagus putrescentiae; experiment: chlorobenzene fumigation in 1.9-liter jars, ham mites on dog food kibbles; format: in vivo; conditions: 21° C., larvae and adults
Experimental: as §1, §2
Ham mites on infested dog food kibbles were fumigated with chlorobenzene at different doses for 24 and 48 h at 21° C. […] After fumigation, vials with ham mites were held at 21° C. overnight before mortality of larvae and adults was scored. […] Chlorobenzene vapor concentrations were measured during each fumigation. […]

[11] = tested on: spotted wing drosophila, Drosophila suzukii; experiment: chlorobenzene fumigation in 1.9-liter jars, spotted wing drosophila flies; format: in vivo; conditions: 50 μl/l dose, 3 h at 21° C.
Experimental: as §6
Rice weevil and confused flour beetle were reared on pearled barley and wheat flour diet in jars, respectively. Western flower thrips were reared on lettuce plants in a greenhouse. Spotted wing drosophila was reared on an artificial diet in plastic cups. […]
A filter paper disc was clipped on the port underneath the lid with a metal clip. […] Insect mortality was then scored. Chlorobenzene doses were recorded as microliter liquid per liter of chamber space (ul/l). […]

rice weevil = experiment: large-scale chlorobenzene fumigation of corn in a 60-liter chamber, rice weevil all life stages; format: in vivo, Sitophilus oryzae; conditions: 24 h at 21° C.
Experimental: as §4, §5

[12] = 100 μl/l dose (800 ppm vapor concentration), 48-h fumigation
[13] = 150 μl/l dose (1800 ppm vapor concentration), 24-h fumigation
[14] = 30 ml chlorobenzene in 60 L chamber with 20 kg corn
[15] = large-scale fumigations of corn, 60 L chamber

Clc1ccccc1 [chlorobenzene]
vapor density relative to air [1]: 3.9 | water solubility [2]: 466.3 µg/mL (≈ 4.14 mM) | OSHA exposure limit ([3]; 8-hour workday and 40-hour work week): 75 ppm | oral and dermal toxicity ([3]; EPA category 4): very low | carcinogenicity ([3]; reported): non-carcinogenic | mortality of confused flour beetle adults [4, 12]: 100% | mortality of confused flour beetle adults [4, 13]: 100% | Adults Mortality (%) (confused flour beetle; [14]): 100% | Immature stages Survived to adults (confused flour beetle; 30 ml chlorobenzene in 60 L chamber with 20 kg corn, adults emerged from 30 treatment vials): 0 | Immature stages Relative mortality (%) (confused flour beetle; 30 ml chlorobenzene in 60 L chamber with 20 kg corn, relative to control by adults emerged): 100% | control of adults and immature life stages of confused flour beetle (confused flour beetle; [15]): Complete control | mortality of termite workers [5]: 100% | Pupae Mortality (%) Mean ± SE ([6]; 50 μl/l dose): 7.4 ± 3.8% | Larvae Mortality (%) Mean ± SE ([6]; 50 μl/l dose): 20.4 ± 3.6% | Pupae Mortality (%) Mean ± SE ([6]; 100 μl/l dose): 20.4 ± 5.0% | Larvae Mortality (%) Mean ± SE ([6]; 100 μl/l dose): 69.1 ± 4.6% | Eggs Total neonates ([6]; 100 μl/l dose, 890 eggs (control 370 neonates of 887)): 0 | Pupae Mortality (%) Mean ± SE ([6]; 200 μl/l dose): 43.5% | Larvae Mortality (%) Mean ± SE ([6]; 200 μl/l dose): 95.9 ± 1.3% | Eggs Total neonates ([6]; 200 μl/l dose, 884 eggs (control 370 neonates of 887)): 0 | effect on navel orangeworm eggs ([6]; both doses (100 and 200 μl/l)): All eggs were killed | vapor pressure [7]: 11.7 mmHg | mortality of rice weevil adults [8, 12]: 100% | mortality of rice weevil adults [8, 13]: 100% | mortality at 370 ppm ([9]; 50 μl/l dose (about 370 ppm)): 95.3% | mortality at 630 ppm ([9]; 75 μl/l dose (about 630 ppm)): 100% | mortality at 1700 ppm ([10]; 150 μl/l dose (about 1700 ppm), 48-h fumigation): 99.9% | mortality at 2000 ppm ([10]; 200 μl/l dose (about 2000 ppm), 24-h fumigation): 100% | mortality of spotted wing drosophila flies [11]: 100% | Adults Mortality (%) (rice weevil; [14]): 100% | Immature stages Survived to adults (rice weevil; 30 ml chlorobenzene in 60 L chamber with 20 kg corn, adults emerged from 30 treatment vials (1645 from 15 control vials)): 73 | Immature stages Relative mortality (%) (rice weevil; 30 ml chlorobenzene in 60 L chamber with 20 kg corn, relative to control by adults emerged, assuming equal numbers of vials): 97.8% | control of adults of rice weevil (rice weevil; [15]): complete control
